The target in data set [1] is P-gp (MDR1) (Homo sapiens (Human), UniProt P08183). Description: MDR1 LLC-PK1 permeability assay: efflux ratio. Particulars: for MDR1 efflux ratio: MDR1 transfected LLC-PK1 cells, Papp(B−A)/Papp(A−B), test article 1 μM, 2 hours; for efflux ratio at 2 h, 1 µM: pig, LLC-PK1.
Description: (§4) Both LLC-PK1 and MDR1 transfected LLC-PK1 cells were cultured and plated according to manufacturer's recommendations with the exception that the passage media contained only 2% fetal bovine serum to extend passage time out to seven days.
(§5) Both positive and negative controls were used to assess functionality of P-gp or BCRP efflux in the assays. […] Final organic concentration in the assay was 1%. All dosing solutions contained 10 μM lucifer yellow to monitor LLC-PK1 or MDCKII cell monolayer integrity.
(§6) For the apical to basolateral determination (A to B), 75 μL of the test article in transport buffer were added to the apical side of the individual transwells and 250 μL of basolateral media, without compound or lucifer yellow, were added to each well. For the basolateral to apical determination (B to A), 250 μL of test article in transport buffer were added to each well and 75 μL transport buffer, without compound or lucifer yellow, were added to each transwell. All tests were performed in triplicate, and each compound was tested for both apical to basolateral and basolateral to apical transport. The plates were incubated for 2 hours on a Lab-Line Instruments Titer Orbital Shaker (VWR, West Chester, Pa.) at 50 rpm and 37° C. with 5% CO2. All culture plates were removed from the incubator and 50 μL of media were removed from the apical and basolateral portion of each well and added to 150 μL of 1 μM labetalol in 2:1 acetonitrile (acetonitrile): H2O, v/v.
(§7) These values were accepted when found to be below 2% for apical to basolateral and 5% basolateral to apical flux across the MDR1-transfected LLC-PK1 or BCRP-transfected MDCKII cell monolayers. The plates were sealed and the contents of each well analyzed by LC-MS/MS. The compound concentrations were determined from the ratio of the peak areas of the compound to the internal standard (labetalol) in comparison to the dosing solution.
(§8) The LC-MS/MS system was comprised of an HTS-PAL autosampler (Leap Technologies, Carrboro, N.C.), an HP1200 HPLC (Agilent, Palo Alto, Calif.), and a MDS Sciex 4000 Q Trap system (Applied Biosystems, Foster City, Calif.). […] The total run time, including re-equilibration, for a single injection was 1.2 minutes. Mass spectrometric detection of the analytes was accomplished using the ion spray positive mode.
(§9) An efflux ratio is calculated from the mean apical to basolateral (A−B) Papp data and basolateral to apical (B−A) Papp data: Efflux ratio=Papp(B−A)/Papp(A−B)
In data set [2] the target is BCRP (Homo sapiens (Human), UniProt Q9UNQ0). Description: BCRP MDCKII permeability assay: efflux ratio. Particulars: for BCRP efflux ratio: BCRP transfected MDCKII cells, Papp(B−A)/Papp(A−B), test article 1 μM, 2 hours; for efflux ratio at 2 h, 1 µM: dog.
Sequence of BCRP (Q9UNQ0 whole entry, species assumed): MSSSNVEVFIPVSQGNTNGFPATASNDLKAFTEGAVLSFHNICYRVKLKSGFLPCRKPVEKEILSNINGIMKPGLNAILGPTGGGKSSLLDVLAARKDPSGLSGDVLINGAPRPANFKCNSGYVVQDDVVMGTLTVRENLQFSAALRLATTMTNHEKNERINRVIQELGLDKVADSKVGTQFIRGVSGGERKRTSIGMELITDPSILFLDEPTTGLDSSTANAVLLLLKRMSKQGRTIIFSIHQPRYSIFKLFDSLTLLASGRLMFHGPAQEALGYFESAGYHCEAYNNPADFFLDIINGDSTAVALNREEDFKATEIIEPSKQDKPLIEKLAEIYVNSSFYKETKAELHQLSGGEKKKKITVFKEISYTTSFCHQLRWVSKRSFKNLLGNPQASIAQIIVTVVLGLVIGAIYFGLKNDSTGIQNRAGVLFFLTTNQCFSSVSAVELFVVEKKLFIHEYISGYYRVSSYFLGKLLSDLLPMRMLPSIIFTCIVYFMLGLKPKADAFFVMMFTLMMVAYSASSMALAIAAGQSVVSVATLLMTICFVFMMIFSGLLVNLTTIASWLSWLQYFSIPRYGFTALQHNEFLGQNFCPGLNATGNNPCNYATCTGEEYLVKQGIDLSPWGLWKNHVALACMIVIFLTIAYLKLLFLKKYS
Description: (§10) BCRP transfected MDCKII cells were cultured and plated according to manufacturer's recommendations. Assay conditions included with and without the BCRP-specific inhibitor, K0143, at a concentration of 0.3 μM to ascertain the contribution of BCRP to the efflux value of the test compound.
as §5, §6, §7, §8, §9
The target of data set [3] is full-length FLAG-tagged B-Raf(V600E) (Homo sapiens (Human), UniProt P15056, V600E). Description: BRAF V600E enzyme assay (TR-FRET competitive displacement of fluorescent tracer). In kind it is binding. Particulars: averaged IC50; 60 min at ambient temperature; 11-point dosing, top dose 10 μM. An excerpt: (§1) A competitive displacement assay was configured for B-Raf that monitors the amount of a fluorescently-tagged “tracer” bound to B-Raf via TR-FRET from an anti-tag Eu-labeled antibody also bound to B-Raf.
Sequence of full-length FLAG-tagged B-Raf(V600E) (P15056 whole entry V600E): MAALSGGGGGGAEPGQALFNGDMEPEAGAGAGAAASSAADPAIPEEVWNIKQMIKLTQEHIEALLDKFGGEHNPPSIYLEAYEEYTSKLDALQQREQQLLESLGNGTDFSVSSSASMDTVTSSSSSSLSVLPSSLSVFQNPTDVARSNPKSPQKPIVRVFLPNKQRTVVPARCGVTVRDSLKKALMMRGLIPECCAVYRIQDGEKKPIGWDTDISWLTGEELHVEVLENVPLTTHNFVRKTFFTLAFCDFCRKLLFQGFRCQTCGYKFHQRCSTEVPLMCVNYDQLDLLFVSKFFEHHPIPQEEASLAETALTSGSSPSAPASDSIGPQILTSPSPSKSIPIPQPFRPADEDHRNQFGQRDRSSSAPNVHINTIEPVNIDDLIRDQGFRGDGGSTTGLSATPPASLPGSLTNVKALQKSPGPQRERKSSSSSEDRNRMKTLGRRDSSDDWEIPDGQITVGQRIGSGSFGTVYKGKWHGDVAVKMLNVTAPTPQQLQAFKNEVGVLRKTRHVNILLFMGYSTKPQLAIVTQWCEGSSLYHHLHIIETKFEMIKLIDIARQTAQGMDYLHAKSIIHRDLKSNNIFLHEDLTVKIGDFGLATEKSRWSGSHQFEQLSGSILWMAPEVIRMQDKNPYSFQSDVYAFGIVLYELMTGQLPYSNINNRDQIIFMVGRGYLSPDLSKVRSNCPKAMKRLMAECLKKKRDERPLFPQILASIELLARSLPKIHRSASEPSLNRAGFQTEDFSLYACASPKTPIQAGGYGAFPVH
(§2) [formula] • where: • Xmax Average Uninhibited Controls • Xmin Average Background
(§3) A 4-parameter logistic model was the fit to the POC data for each compound.
On the technique in general: In TR-FRET formats the signal depends on donor and acceptor labels being close together.

The test system of data set [4] is LLC-PK1 or MDCKII cell monolayer. The data set can be described thus: MDR1 LLC-PK1 and BCRP MDCKII permeability assay: permeability coefficient (Papp). Particulars: permeability coefficient Papp; test article 1 μM; 2 hours, 37° C.
Description: as §4, §10, §5, §6, §7, §8
(§11) where Cd, V, t and C0 are the detected concentration (μM), the volume on the dosing side (mL); the incubation time (s) and the initial dosing concentration (μM), respectively. The calculations for Papp were made for each replicate and then averaged.
The nature of data set [5]: PK (free brain-to-free plasma ratio) (mouse). It counts as in vivo. Particulars: mouse; unbound brain-to-unbound plasma concentration ratio; male CD-1 mice; oral gavage 10 mg/kg; sampling 2-24 hours; read-out: B/P ratio (free). On the procedure: PK (Free Brain-to-Free Plasma Ratio) (Mouse)
The ability of representative compounds to penetrate the BBB in mice was determined by evaluating the unbound brain-to-unbound plasma (also referred to as free brain-to-free plasma) concentration ratio in male CD-1 mice.
Brain samples were stored at −20±5° C. prior to analysis. Concentrations of test compound in mouse brain homogenate were determined by liquid chromatography tandem mass spectrometry (LC-MS/MS) following protein precipitation with acetonitrile. A 12-point calibration curve, ranging from 0.5 to 10,000 ng/mL, was prepared in duplicate. A solution of 400 μg/mL of test compound in dimethyl sulfoxide (DMSO) was serially diluted (3-fold) in 100% DMSO, and then 2.5 μL of each standard solution was added to 100 μL of naïve male CD-1 mice brain homogenate. To mimic the extraction in the standard curve, 2.5 μL of DMSO was added to all test samples. Both calibration and test brain homogenate samples were spiked with 10 μL of an IS (1 μg/mL of a structural analog). Brain homogenate was generated by adding 0.75 mL of 4:1 water:MeOH to each brain sample followed by homogenization for 1 minute with bead beater tubes a 6 m/s using an MP Fast Prep-24®. Proteins were precipitated from 100 μL of brain homogenate sample by the addition of 300 μL of acetonitrile. […] A 100 μL aliquot of each supernatant was transferred via a 550 μL Personal Pipettor (Apricot Designs, Monrovia, Calif.) to 96-well plates and diluted 1:1 with HPLC grade water. The resulting plates were sealed with aluminum for LC-MS/MS analysis.
Brain-to-plasma ratios were calculated using the concentration of compound measured in the brain divided by the concentration of compound measured in the plasma. Brain-to-plasma ratios were always generated from a single animal and time point. Free brain-to-free plasma ratios were calculated by multiplying the brain-to-plasma ratio by the in vitro brain homogenate free fraction divided by the in vitro plasma free fraction using the following equation: (B/P)*(Bfu/Pfu).

Data set [6] concerns the target N-terminally GST-tagged B-Raf(V600K) (Homo sapiens, UniProt P15056, V600K). Description: BRAF V600K enzyme assay (TR-FRET competitive displacement of fluorescent tracer). In kind it is binding. Particulars: averaged IC50; 60 min at ambient temperature; 11-point dosing, top dose 10 μM.
From the text: as §1, §2, §3

A short description of data set [7]: MDR1 LLC-PK1 and BCRP MDCKII permeability assay: permeability coefficient (Papp).
Description: as §4, §10, §5, §6, §7, §8, §11
Data set [8] concerns LLC-PK1 or MDCKII cell monolayer.
Description: as §4, §10, §5, §6, §7, §8, §11

Read-outs that look alike come from different tables or passages of the source.

Sequence of P-gp (MDR1) (P08183 whole entry, species assumed): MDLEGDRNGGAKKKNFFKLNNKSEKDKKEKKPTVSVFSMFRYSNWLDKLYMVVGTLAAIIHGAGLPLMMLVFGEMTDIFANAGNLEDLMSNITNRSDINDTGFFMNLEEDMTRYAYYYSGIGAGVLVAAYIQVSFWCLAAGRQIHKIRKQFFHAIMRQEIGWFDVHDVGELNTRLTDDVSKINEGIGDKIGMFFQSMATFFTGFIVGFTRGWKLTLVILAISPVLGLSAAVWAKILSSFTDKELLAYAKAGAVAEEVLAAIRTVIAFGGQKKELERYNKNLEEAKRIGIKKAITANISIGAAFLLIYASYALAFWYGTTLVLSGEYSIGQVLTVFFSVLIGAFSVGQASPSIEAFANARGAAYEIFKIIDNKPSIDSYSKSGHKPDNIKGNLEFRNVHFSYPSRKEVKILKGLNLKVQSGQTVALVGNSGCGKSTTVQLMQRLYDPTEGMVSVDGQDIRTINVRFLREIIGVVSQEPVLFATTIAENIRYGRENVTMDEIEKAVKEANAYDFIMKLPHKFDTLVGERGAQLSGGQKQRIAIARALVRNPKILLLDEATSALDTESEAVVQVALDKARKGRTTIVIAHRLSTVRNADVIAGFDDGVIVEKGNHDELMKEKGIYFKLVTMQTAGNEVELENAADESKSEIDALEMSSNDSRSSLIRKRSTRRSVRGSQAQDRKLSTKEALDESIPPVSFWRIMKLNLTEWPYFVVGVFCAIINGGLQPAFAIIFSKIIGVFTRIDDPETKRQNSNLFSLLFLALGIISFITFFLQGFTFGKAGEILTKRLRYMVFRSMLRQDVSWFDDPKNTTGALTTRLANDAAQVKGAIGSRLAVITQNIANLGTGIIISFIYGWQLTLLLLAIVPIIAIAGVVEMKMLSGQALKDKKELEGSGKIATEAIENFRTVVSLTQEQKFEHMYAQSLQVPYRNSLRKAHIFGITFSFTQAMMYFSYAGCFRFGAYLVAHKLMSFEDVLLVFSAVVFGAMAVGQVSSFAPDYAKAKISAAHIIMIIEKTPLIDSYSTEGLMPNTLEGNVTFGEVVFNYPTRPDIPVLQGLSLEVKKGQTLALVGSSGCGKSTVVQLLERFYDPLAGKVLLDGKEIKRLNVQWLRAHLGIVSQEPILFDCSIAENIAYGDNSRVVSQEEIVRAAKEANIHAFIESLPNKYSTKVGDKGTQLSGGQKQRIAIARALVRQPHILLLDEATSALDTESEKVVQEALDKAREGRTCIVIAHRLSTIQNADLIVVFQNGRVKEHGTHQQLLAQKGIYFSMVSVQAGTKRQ
Sequence of N-terminally GST-tagged B-Raf(V600K) (P15056 2-766 V600K limits assumed): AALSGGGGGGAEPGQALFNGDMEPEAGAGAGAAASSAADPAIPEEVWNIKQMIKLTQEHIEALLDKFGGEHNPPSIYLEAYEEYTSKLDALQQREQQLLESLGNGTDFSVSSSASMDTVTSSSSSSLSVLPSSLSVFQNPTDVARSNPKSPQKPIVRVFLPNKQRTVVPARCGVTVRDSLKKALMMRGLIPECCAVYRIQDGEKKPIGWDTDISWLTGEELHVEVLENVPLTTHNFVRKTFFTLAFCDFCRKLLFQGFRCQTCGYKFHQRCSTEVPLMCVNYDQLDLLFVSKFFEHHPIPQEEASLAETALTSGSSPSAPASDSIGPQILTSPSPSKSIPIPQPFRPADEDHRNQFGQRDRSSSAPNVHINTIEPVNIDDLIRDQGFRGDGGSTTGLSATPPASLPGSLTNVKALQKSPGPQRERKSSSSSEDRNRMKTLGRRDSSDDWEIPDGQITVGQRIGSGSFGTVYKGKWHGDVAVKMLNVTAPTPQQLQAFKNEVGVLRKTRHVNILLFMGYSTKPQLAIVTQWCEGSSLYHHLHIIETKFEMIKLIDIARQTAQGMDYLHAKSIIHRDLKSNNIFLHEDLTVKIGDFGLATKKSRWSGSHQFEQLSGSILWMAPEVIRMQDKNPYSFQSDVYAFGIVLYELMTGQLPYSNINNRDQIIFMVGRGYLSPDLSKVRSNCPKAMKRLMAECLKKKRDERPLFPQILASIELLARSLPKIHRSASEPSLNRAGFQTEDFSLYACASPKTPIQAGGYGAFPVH

One may read the IC50 as the concentration that inhibits the measured activity by half. The low end stands for higher potency, the high end for lower potency. On to “1-cyclopropyl-N-(4-((3,5-dimethyl-4-oxo-3,4-dihydroquinazolin-6-yl)amino)-3,5-difluoropyridin-2-yl)methanesulfonamide [Example 42]”, for which, in data set [1], the MDR1 efflux ratio was 5.26. Also, the BCRP efflux ratio in data set [2] is given as 23.73. In addition, the 50% inhibitory concentration (IC50) in data set [3] amounted to 60.3 nM. Moreover, the Permeability in data set [4] is listed as 18.35 *10^−6 cm/s.
The efflux ratio is the permeability from basolateral to apical divided by that in the opposite direction, in the common usage. Usually Papp stands for the rate of passage across a membrane or cell layer, normalised by area and donor concentration. Read a low Papp as slow passage. For `CCCS(=O)(=O)Nc1ccc(F)c(Nc2ccc3ncn(C)c(=O)c3c2C)c1F` [Example 1, N-(3-((3,5-dimethyl-4-oxo-3,4-dihydroquinazolin-6-yl)amino)-2,4-difluorophenyl)propane-1-sulfonamide], the results for the efflux ratio at 2 h, 1 µM in data set [1] and in data set [2] were 1.68 and 3.4, respectively. Moreover, in data set [5], the Kp,uu (unbound brain/unbound plasma ratio) lay in the range of 0.3 to 0.62. Moreover, the IC50 in data set [6] worked out at 8.5 nM; in data set [3], 42.7 nM. The Papp at 2 h, 1 µM in data set [7] was determined as 34.9 ×10⁻⁶ cm/s.
Take `Cc1c(Nc2cccc(NS(=O)(=O)CCCF)c2Cl)ccc2ncn(C)c(=O)c12` [Example 4]: the values for the efflux ratio at 2 h, 1 µM in data set [1] and in data set [2] were 1.14 and 1.85, respectively. Besides, in data set [5], the Kp,uu (unbound brain/unbound plasma ratio) was 0.35 to 1.6. Moreover, the values for the half-inhibitory concentration (IC50) in data set [6] and in data set [3] were 8.1 nM and 16.1 nM, respectively. The Papp at 2 h, 1 µM in data set [7] turned out to be 34.5 ×10⁻⁶ cm/s.
For the compound `CCCS(=O)(=O)Nc1cc(F)c(F)c(Nc2ccc3ncn(C)c(=O)c3c2C)c1Cl` [Example 7, N-(2-chloro-3-((3,5-dimethyl-4-oxo-3,4-dihydroquinazolin-6-yl)amino)-4,5-difluorophenyl)propane-1-sulfonamide], the efflux ratio at 2 h, 1 µM in data set [1] is 1.3; in data set [2] it was 1.64. The Kp,uu (unbound brain/unbound plasma ratio) in data set [5] fell in the range of 0.87 to 1.19. For the same compound, the IC50 turned out to be 2.2 nM in data set [6] and 1.3 nM in data set [3]. Besides, the Papp at 2 h, 1 µM in data set [7] amounted to 26.3 ×10⁻⁶ cm/s.
Turning to `CCCS(=O)(=O)Nc1ccc(F)c(Nc2ccc3ncn(C)c(=O)c3c2C)c1Cl` [Example 9, N-(2-chloro-3-((3,5-dimethyl-4-oxo-3,4-dihydroquinazolin-6-yl)amino)-4-fluorophenyl)propane-1-sulfonamide], the efflux ratio at 2 h, 1 µM in data set [1] came out at 1.26; in data set [2], 1.23. For the same compound, the Kp,uu (unbound brain/unbound plasma ratio) in data set [5] is 0.76 to 1.04. The IC50 was found to be 6.5 nM in data set [6] and 19.7 nM in data set [3]. In data set [7], this compound showed an apparent permeability coefficient (Papp) at 2 h, 1 µM of 27.8 ×10⁻⁶ cm/s.
Regarding `CCCS(=O)(=O)Nc1cc(Cl)cc(Nc2ccc3ncn(C)c(=O)c3c2C)c1Cl` [Example 48, N-(2,5-dichloro-3-((3,5-dimethyl-4-oxo-3,4-dihydroquinazoli-6-yl)amino)phenyl)propane-1-sulfonamide], the Permeability in data set [8] is 25.83 *10^−6 cm/s. In addition, the 50% inhibitory concentration (IC50) in data set [3] was determined as 3 nM.
Regarding `CCCS(=O)(=O)Nc1cccc(Nc2ccc3ncn(C)c(=O)c3c2C)c1C#N` [Example 53, N-(2-cyano-3-((3,5-dimethyl-4-oxo-3,4-dihdyroquinazolin-6-yl)amino)phenyl)propane-1-sulfonamide], in data set [8], the Permeability is listed as 27.13 *10^−6 cm/s. The same compound returned a 50% inhibitory concentration (IC50) in data set [3] of 9.4 nM.
The like results for `CCN(C)S(=O)(=O)Nc1ccc(F)c(Nc2ccc3ncn(C)c(=O)c3c2C)c1Cl` [Example 54, N-(2-chloro-3-((3,5-dimethyl-4-oxo-3,4-dihydroquinazolin-6-yl)amino)-4-fluorophenyl)-N-ethyl-N-methylamino-1-sulfonamide] were, in that order, 35.81 *10^−6 cm/s and 188 nM.
As to `Cc1c(Oc2c(F)ccc(NS(=O)(=O)CCCF)c2Cl)ccc2ncn(C)c(=O)c12` [Example 67, N-{2-chloro-3-[(3,5-dimethyl-4-oxo-3,4-dihydroquinazolin-6-yl)oxy]-4-fluorophenyl}-3-fluoropropane-1-sulfonamide], the efflux ratio at 2 h, 1 µM in data set [1] and in data set [2] was 1.8 in each case. In addition, in data set [5], the Kp,uu (unbound brain/unbound plasma ratio) was in the range of 0.4 to 0.49. Further, the IC50 in data set [6] turned out to be 2.8 nM; in data set [3], 2 nM. In addition, the Papp at 2 h, 1 µM in data set [7] stood at 27.6 ×10⁻⁶ cm/s.
Regarding `Cn1cnc2ccc(Nc3c(F)ccc(NS(=O)(=O)CCCF)c3Cl)c(Cl)c2c1=O` [WO 2012/118492 Ex. 37, reference compound], the efflux ratio at 2 h, 1 µM in data set [1] came to 1.9; in data set [2], 8.6. In data set [5], the Kp,uu (unbound brain/unbound plasma ratio) lay within 0.12 to 0.15.
On the same counts, the results for `Cn1cnc2ccc(Nc3c(F)ccc(NS(=O)(=O)CCCF)c3Cl)cc2c1=O` [WO 2012/118492 Example 34, reference compound] are 8.89, 7.68 and 0.08 to 0.14.
Take “N-(2-chloro-3-((3,5-dimethyl-4-oxo-3,4-dihydroquinazolin-6-yl)amino)-4-fluorophenyl)-1-cyclopropylmethanesulfonamide [Example 50]”: in data set [1], the MDR1 efflux ratio is recorded as 1.54. Moreover, the BCRP efflux ratio in data set [2] amounted to 1.13. The same compound yielded an IC50 in data set [3] of 66.1 nM. Also, the Permeability in data set [4] is on record as 21.88 *10^−6 cm/s.
For the compound “N-(2-chloro-3-((3,5-dimethyl-4-oxo-3,4-dihydroquinazolin-6-yl)amino)-4-fluorophenyl)-2-methylpropane-1-sulfonamide [Example 51]”, the MDR1 efflux ratio in data set [1] turned out to be 1.64. The BCRP efflux ratio in data set [2] is recorded as 1.28. The same compound returned an IC50 in data set [3] of 63.4 nM. In addition, in data set [4], the Permeability was 27.16 *10^−6 cm/s.
The like results for “N-(2-chloro-3-((3,5-dimethyl-4-oxo-3,4-dihydroquinazolin-6-yl)amino)-4-fluorophenyl)ethanesulfonamide [Example 52]” were, in that order, 1.76, 1.28, 226 nM and 28.91 *10^−6 cm/s.
The like results for “N-(3-chloro-4-((3,5-dimethyl-4-oxo-3,4-dihydroquinazolin-6-yl)amino)-5-fluoropyridin-2-yl)-1-cyclopropylmethanesulfonamide [Example 47]” were, in that order, 1.84, 7.93, 41.7 nM and 25.7 *10^−6 cm/s.
On the same counts, the results for “N-(3-chloro-4-((3,5-dimethyl-4-oxo-3,4-dihydroquinazolin-6-yl)amino)-5-fluoropyridin-2-yl)ethanesulfonamide [Example 45]” are 2.47, 11.29, 137 nM and 16.56 *10^−6 cm/s.
For the compound “N-(4-((3,5-dimethyl-4-oxo-3,4-dihydroquinazolin-6-yl)amino)-3,5-difluoropyridin-2-yl)ethanesulfonamide [Example 43]”, in data set [1], the MDR1 efflux ratio is 5.24. Further, the BCRP efflux ratio in data set [2] stood at 26.02. The compound also had a concentration for half-maximal inhibition (IC50) in data set [3] of 260 nM. The Permeability in data set [4] is 8.75 *10^−6 cm/s.

The values are drawn from patent publication US11414404B2, “Compounds for the treatment of BRAF-associated diseases and disorders” (Array BioPharma Inc., priority 2019, dated 2022).
